Literature values in US20060083700A1, “Use of a novel phytonutrient rich bioactive concentrate (Ri-ActiveTM) for the prevention and treatment of cardiovascular disease, diabetes and other health disorders” (NaturRi LLC, priority 2004, published 2006).

Tested on: hypercholesterolemic subjects
Conditions: 28 subjects, phases of 35 days

CC[C@H](C)C(=O)O[C@H]1C[C@@H](C)C=C2C=C[C@H](C)[C@H](CC[C@@H]3C[C@@H](O)CC(=O)O3)[C@H]21 [lovastatin]
reduction of LDL-C: 15% | reduction of serum total cholesterol: 13%
